Activity calls are given as the source filed them. The rule behind the calls is not given here.
Legend:
[1] = molecular target: T1, Nuclear factor NF-kappa-B complex (Homo sapiens) (UniProt Q00653+P19838+Q04206); experiment: Inhibition of human NF-kB in human A549 cells assessed as suppression of TNF-alpha induced IkBalpha expression at 0.5 to 5 uM pretreated with compounds for 24 hrs followed by TNF-alpha stimulation for 10 mins by Western blot analysis; format: cell-based; settings: dose 0.5-5 µM, time 1450.0 min
[2] = tested on: A549; experiment: Induction of apoptosis in human A549 cells assessed as late apoptotic cells at 1.8 uM measured by annexinV-FITC/propidium iodide staining based flow cytometry analysis (reference value: 0.64%); format: functional
[3] = tested on: HCT-116; experiment: Cell cycle arrest in human HCT-116 cells assessed as accumulation at G2/M phase at 1.8 uM measured after 24 hrs by PI staining based Flow cytometry method; format: functional
[4] = tested on: MAP3K7; experiment: Inhibition of human TAK1 in human A549 cells assessed as suppression of TNF-alpha induced TAK1 expression at 0.5 to 5 uM pretreated with compounds for 24 hrs followed by TNF-alpha stimulation for 10 mins by Western blot analysis; settings: dose 0.5-5 µM, time 1450.0 min
[5] = tested on: A549; experiment: Induction of apoptosis in human A549 cells assessed as necrotic cells at 1.8 uM measured by annexinV-FITC/propidium iodide staining based flow cytometry analysis (reference value: 0.42%); format: functional
[6] = tested on: A549; experiment: Induction of apoptosis in human A549 cells assessed as viable cells at 0.6 uM measured by annexinV-FITC/propidium iodide staining based flow cytometry analysis (reference value: 97.8%); format: functional; settings: read-out: Activity
[7] = molecular target: T1, Nuclear factor NF-kappa-B complex (Homo sapiens); experiment: Inhibition of human NF-kB in human HCT-116 cells assessed as suppression of TNF-alpha induced IkBalpha expression at 0.5 to 5 uM pretreated with compounds for 24 hrs followed by TNF-alpha stimulation for 10 mins by Western blot analysis; format: cell-based; settings: dose 0.5-5 µM, time 1450.0 min
[8] = molecular target: T1, Nuclear factor NF-kappa-B complex (Homo sapiens); experiment: Inhibition of human NF-kB in human HCT-116 cells assessed as suppression of TNF-alpha induced p-65 expression at 0.5 to 5 uM pretreated with compounds for 24 hrs followed by TNF-alpha stimulation for 10 mins by Western blot analysis; format: cell-based; settings: dose 0.5-5 µM, time 1450.0 min
[9] = tested on: A549; experiment: Induction of apoptosis in human A549 cells assessed as necrotic cells at 0.6 uM measured by annexinV-FITC/propidium iodide staining based flow cytometry analysis (reference value: 0.42%); format: functional
[10] = tested on: A549; experiment: Cell cycle arrest in human A549 cells assessed as accumulation at S phase at 1.8 uM measured after 24 hrs by PI staining based Flow cytometry method (reference value: 34.24%); format: functional

T1 sequence (P19838 whole entry, looked up): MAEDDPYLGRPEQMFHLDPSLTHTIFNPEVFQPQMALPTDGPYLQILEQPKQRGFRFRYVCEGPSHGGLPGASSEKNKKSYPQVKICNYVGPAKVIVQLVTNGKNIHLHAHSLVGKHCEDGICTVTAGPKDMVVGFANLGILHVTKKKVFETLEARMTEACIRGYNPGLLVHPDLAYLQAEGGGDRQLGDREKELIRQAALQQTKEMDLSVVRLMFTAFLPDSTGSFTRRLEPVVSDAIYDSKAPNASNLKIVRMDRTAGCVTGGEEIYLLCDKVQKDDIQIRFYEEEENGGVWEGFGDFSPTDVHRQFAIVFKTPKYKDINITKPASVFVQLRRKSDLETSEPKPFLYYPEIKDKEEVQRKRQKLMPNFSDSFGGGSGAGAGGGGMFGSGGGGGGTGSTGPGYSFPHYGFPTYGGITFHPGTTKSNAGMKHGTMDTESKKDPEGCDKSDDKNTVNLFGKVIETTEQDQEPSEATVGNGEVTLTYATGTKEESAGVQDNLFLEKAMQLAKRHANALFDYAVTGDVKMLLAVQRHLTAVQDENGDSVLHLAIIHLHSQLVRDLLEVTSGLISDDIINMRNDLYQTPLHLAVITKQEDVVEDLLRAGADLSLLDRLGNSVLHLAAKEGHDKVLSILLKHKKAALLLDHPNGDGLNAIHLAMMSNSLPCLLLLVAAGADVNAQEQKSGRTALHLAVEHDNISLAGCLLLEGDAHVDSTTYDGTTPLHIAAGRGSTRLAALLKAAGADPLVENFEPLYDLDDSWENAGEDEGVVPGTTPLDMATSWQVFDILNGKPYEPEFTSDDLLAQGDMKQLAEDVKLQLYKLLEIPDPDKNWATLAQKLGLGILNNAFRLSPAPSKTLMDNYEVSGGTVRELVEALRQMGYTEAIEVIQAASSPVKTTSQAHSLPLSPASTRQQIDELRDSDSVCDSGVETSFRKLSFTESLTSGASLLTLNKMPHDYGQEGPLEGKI
T1 sequence (Q00653 whole entry, looked up): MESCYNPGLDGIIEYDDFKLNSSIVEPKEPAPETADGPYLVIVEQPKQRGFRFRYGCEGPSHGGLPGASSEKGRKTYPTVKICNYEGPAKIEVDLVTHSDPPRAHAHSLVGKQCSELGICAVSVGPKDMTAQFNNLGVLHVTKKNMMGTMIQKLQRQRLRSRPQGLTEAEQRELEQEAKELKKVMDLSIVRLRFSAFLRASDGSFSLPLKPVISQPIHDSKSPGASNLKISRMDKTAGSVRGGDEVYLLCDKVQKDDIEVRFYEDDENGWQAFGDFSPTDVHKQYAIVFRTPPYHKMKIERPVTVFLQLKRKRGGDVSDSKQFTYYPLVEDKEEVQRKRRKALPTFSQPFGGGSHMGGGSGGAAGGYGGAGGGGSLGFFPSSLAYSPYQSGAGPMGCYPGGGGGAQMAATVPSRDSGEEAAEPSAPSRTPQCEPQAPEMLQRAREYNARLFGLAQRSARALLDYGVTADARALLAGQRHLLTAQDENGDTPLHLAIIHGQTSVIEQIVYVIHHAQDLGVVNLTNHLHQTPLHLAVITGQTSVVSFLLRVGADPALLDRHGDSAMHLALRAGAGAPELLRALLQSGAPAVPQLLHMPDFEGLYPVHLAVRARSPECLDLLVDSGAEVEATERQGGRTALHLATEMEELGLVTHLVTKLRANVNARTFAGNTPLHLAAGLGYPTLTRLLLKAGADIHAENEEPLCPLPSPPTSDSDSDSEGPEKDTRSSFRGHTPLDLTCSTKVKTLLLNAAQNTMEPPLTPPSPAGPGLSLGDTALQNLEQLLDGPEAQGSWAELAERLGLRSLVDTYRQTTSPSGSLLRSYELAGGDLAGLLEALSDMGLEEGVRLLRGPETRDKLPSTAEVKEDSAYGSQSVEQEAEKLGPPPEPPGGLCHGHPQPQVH
T1 sequence (Q04206 whole entry, looked up): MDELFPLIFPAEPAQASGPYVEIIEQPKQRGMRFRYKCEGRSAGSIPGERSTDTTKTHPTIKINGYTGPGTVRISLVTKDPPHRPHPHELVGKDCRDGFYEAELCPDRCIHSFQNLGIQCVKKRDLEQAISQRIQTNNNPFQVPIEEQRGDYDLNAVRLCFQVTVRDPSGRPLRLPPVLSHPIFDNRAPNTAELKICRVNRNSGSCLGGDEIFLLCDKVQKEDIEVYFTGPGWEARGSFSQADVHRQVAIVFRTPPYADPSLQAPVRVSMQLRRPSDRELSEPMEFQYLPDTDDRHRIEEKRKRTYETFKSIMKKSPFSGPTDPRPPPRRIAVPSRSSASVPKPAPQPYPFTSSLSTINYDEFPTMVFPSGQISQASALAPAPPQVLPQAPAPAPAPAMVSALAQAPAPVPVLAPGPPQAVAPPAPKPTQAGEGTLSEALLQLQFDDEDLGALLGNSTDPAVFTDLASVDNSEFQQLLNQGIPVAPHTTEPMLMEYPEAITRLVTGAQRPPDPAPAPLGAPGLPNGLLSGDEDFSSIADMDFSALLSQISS

## CNC(=O)c1cc(Oc2ccc(Nc3nccc(N4CCCCC4)n3)cc2)ccn1
[1]
  inhibition: Active
[2]
  Activity: 9.54%
[3]
  Activity: 36.72%
[4]
  inhibition: Active
[5]
  Activity: 0.71%
[6]
  viability at 0.6 µM: 87.6%
[7]
  inhibition: Active
[8]
  inhibition: Active
[9]
  Activity: 0.75%
[10]
  Activity: 16.65%
